Reference: patent publication US6759408B2 (Wyeth, priority 1999, dated 2004)
Values belong to the compound of their own block, whether it stands above or below them.

Assays:
[1] = system: rat uterine decidualization; assay: Rat decidualization assay; assay type: in vivo; conditions: read-out: CV-1 IC50 (mg/kg): Percentage inhibition at the dose specified
Protocol: 1. Rat Decidualization Assay
b. Animals (RACUC Protocol #5002)
The animals are treated once daily for seven days.
Uteri are removed and trimmed of fat.
Body weight: Mean total animal body weight (default-kg)
Decidual response: [(D-C)/C]×100%

SMILES: CC1(C)OC(=O)Nc2ccc(-c3coc(C#N)c3)cc21 [Example 23, 4-(4,4-Dimethyl-2-oxo-1,4-dihydro-2H-benzo[d][1,3]oxazin-6-yl)-furan-2-carbonitrile]
melting point: 255 to 256 °C

SMILES: Cc1cc(C#N)sc1-c1ccc2c(c1)C(C)(C)OC(=O)N2 [Compound 18, 5-(4,4-Dimethyl-2-oxo-1,4-dihydro-2H-benzo[d][1,3]oxazin-6-yl)-4-methyl-thiophene-2-carbonitrile]
melting point: 195 to 200 °C

SMILES: CCC1(CC)OC(=O)Nc2ccc(-c3cccc(Cl)c3)cc21 [Example 25, 6-(3-Chlorophenyl)-4,4-diethyl-1,4-dihydrobenzo[d][1,3]oxazin-2-one]
melting point: 150 to 151 °C

SMILES: CC1(C)OC(=O)Nc2ccc(-c3cncc(C#N)c3)cc21 [Example 16, 5-(4,4-Dimethyl-2-oxo-1,4-dihydro-2H-benzo[d][1,3]oxazin-6-yl)-nicotinonitrile]
melting point: 290 to 291 °C

SMILES: Cc1cc(C#N)sc1-c1ccc2c(c1)C1(CCCCC1)OC(=O)N2 [Compound 10, 5-(1,2-Dihydro-2-oxospiro[4H-3,1-benzoxazine-4,1-cyclohexan]-6-yl)-4-methyl-2-thiophenecarbonitrile]
inhibition in vivo at 10 mg/kg [1]: 50%
melting point: 200 to 203 °C

SMILES: N#Cc1ccc(-c2ccc3c(c2)C2(CCCCC2)OC(=O)N3)s1 [Compound 11, 5-(1,2-Dihydro-2-oxospiro[4H-3,1-benzoxazine-4,1-cyclohexan]-6-yl)-2-thiophenecarbonitrile]
inhibition in vivo at 10 mg/kg [1]: 50%

SMILES: CCC1(CC)OC(=O)Nc2ccc(-c3cccc([N+](=O)[O-])c3)cc21 [Example 24, 4,4-Diethyl-6-(3-nitrophenyl)-1,4-dihydrobenzo[d][1,3]oxazin-2-one]
melting point: 193 to 194 °C

SMILES: CC1(C)OC(=O)Nc2ccc(-c3cccc(Cl)c3)cc21 [Example 5, 6-(3-Chlorophenyl)-4,4-dimethyl-1,4-dihydrobenzo[d][1,3]oxazin-2-one]
melting point: 158 to 159 °C

SMILES: CC1(C)OC(=O)Nc2ccc(-c3cccc(C#N)c3)cc21 [Example 12, 3-(4,4-Dimethyl-2-oxo-1,4-dihydro-2H-benzo[d][1,3]oxazin-6-yl)-benzonitrile]
melting point: 236 to 237 °C

SMILES: CC#CC1(C)OC(=O)Nc2ccc(-c3cccc(Cl)c3)cc21 (centres unmarked) [Example 37, 6-(3-Chlorophenyl)-4-methyl-4-propyn-1-yl-1,4-dihydro-benzo[d][1,3]oxazin-2-one]
melting point: 184 to 185 °C

SMILES: CC1(C)OC(=O)Nc2ccc(-c3csc(C#N)c3)cc21 [Compound 17, 4-(4,4-Dimethyl-2-oxo-1,4-dihydro-2H-benzo[d][1,3]oxazin-6-yl)-thiophene-2-carbonitrile]
melting point: 230 to 231 °C (dec.)

Now from value to compound:

melting point: 231 to 233 °C
SMILES: Cc1cc(Br)cc(-c2ccc3c(c2)C(C)(C)OC(=O)N3)c1 [Example 56, 6-(3-Bromo-5-methyl-phenyl)-4,4-dimethyl-1,4-dihydrobenzo-[d][1,3]oxazin-2-one]

melting point: 178 to 179 °C
SMILES: COc1cccc(-c2ccc3c(c2)C(C)(C(F)(F)F)OC(=O)N3)c1 (centres unmarked) [Example 48, 6-(3-Methoxyphenyl)-4-methyl-4-trifluoromethyl-1,4-dihydro-benzo[d][1,3]oxazin-2-one]

melting point: 236 to 238 °C
SMILES: CC1(C)OC(=O)Nc2ccc(-c3coc(C=NO)c3)cc21 [Example 145, 4-(1,4-Dihydro-4,4-dimethyl-2-oxo-2H-3,1-benzoxazin-6-yl)-2-furancarboxaldehyde oxime]

melting point: 200 to 202 °C
SMILES: CC1(C)OC(=O)Nc2ccc(-c3sccc3C#N)cc21 [Example 91, 2-(4,4-Dimethyl-2-oxo-1,4-dihydro-2H-benzo[d][1,3]oxazin-6-yl)-thiophene-3-carbonitrile]

melting point: 288 to 289 °C
SMILES: CC1(C)OC(=O)Nc2ccc(-c3cc(C#N)cc(C#N)c3)cc21 [Example 80, 5-(4,4-Dimethyl-2-oxo-1,4-dihydro-2H-benzo[d][1,3]oxazin-6-yl)-isophthalonitrile]

melting point: 185 to 186 °C
SMILES: C#CC1(C)OC(=O)Nc2ccc(-c3cccc(Cl)c3)cc21 (centres unmarked) [Example 38, 6-(3-Chlorophenyl)-4-ethynyl-4-methyl-1,4-dihydro-benzo[d][1,3]oxazin-2-one]

melting point: 176 °C
SMILES: CC(C)(C)OC(=O)n1cccc1-c1ccc2c(c1)C(C)(C)OC(=O)N2 [Example 94, 2-(4,4-Dimethyl-2-oxo-1,4dihydro-2H-benzo[d][1,3]oxazin-6-yl)-pyrrole-1-carboxylic acid tert-butyl ester]

melting point: 200 to 203 °C
SMILES: CC1(C)OC(=O)Nc2ccc(-c3cc(F)cc(-c4ccsc4)c3)cc21 [Example 93, 6-(3-Fluoro-5-thiophen-3-yl-phenyl)-4,4-dimethyl-1,4-dihydro-benzo[d][1,3]oxazin-2-one]

melting point: 228 to 229 °C
SMILES: O=C1Nc2ccc(-c3cc(F)cc(Br)c3)cc2C(C2CC2)(C2CC2)O1 [Example 54, 6-(3-Bromo-5-fluoro-phenyl)-4,4-dicyclopropyl-1,4-dihydrobenzo-[d][1,3]oxazin-2-one]

melting point: 242 to 244 °C (dec.)
SMILES: CC1(C)OC(=O)Nc2ccc(-c3cccc(S(N)(=O)=O)c3)cc21 [Example 140, 3-(4,4-Dimethyl-2-oxo-1,4-dihydro-2H-benzo[d][1,3]-oxazin-6-yl)benzenesulfonamide]

melting point: 198 to 200 °C
SMILES: O=C1Nc2ccc(-c3cccc(Cl)c3)cc2C(C2CC2)(C2CC2)O1 [Example 43, 6-(3-Chloro-phenyl)-4,4-dicyclopropyl-1,4-dihydro-benzo[d][1,3]oxazin-2-one]

melting point: 265 °C (dec.)
SMILES: CC1(C)OC(=O)Nc2ccc(-c3ccc([N+](=O)[O-])[nH]3)cc21 [Example 96, 4,4-Dimethyl-6-(5-nitro-1H-pyrrol-2-yl)-1,4-dihydrobenzo[d][1,3]oxazin-2-one]

melting point: 256 to 258 °C
SMILES: Cc1cc(C#N)cc(-c2ccc3c(c2)C(C)(C)OC(=O)N3)c1 [Example 58, 3-(4,4-Dimethyl-2-oxo-1,4-dihydro-2H-benzo[d][1,3]oxazin-6-yl)-5-methyl-benzonitrile]

melting point: 212 to 213 °C
SMILES: CC1(C)OC(=O)Nc2ccc(-c3cccc(C#CC#N)c3)cc21 [Example 75, 3-[3-(4,4-Dimethyl-2-oxo-1,4-dihydro-2H-benzo[d][1,3]oxazin-6-yl)-phenyl]-propynenitrile]
